Tests used:
Assay in all cases: biochemical
[1] = target: Cyclin-dependent kinase 7/ cyclin H (Homo sapiens, UniProt P50613)
Description: Inhibition of human recombinant His6 tagged CDK7/CyclinH/MAT1 expressed in Sf21 insect cells after 40 mins by scintillation counting analysis

[2] = target: Cyclin-dependent kinase 1/cyclin B1 (Homo sapiens, UniProt P06493)
Description: Inhibition of human recombinant His6 tagged CDK1/Cyclin B expressed in Sf21 insect cells after 40 mins by scintillation counting analysis

[3] = target: CDK9/cyclin T1 (Homo sapiens, UniProt P50750)
Description: Inhibition of human recombinant His6 tagged CDK9/CyclinT1 expressed in Sf21 insect cells after 40 mins by scintillation counting analysis

[4] = target: Cyclin-dependent kinase 2/cyclin A (Homo sapiens, UniProt P24941)
Description: Inhibition of human recombinant His6 tagged CDK2/Cyclin A expressed in Sf21 insect cells after 40 mins by scintillation counting analysis

CDK9/cyclin T1, sequence (O60563 whole entry): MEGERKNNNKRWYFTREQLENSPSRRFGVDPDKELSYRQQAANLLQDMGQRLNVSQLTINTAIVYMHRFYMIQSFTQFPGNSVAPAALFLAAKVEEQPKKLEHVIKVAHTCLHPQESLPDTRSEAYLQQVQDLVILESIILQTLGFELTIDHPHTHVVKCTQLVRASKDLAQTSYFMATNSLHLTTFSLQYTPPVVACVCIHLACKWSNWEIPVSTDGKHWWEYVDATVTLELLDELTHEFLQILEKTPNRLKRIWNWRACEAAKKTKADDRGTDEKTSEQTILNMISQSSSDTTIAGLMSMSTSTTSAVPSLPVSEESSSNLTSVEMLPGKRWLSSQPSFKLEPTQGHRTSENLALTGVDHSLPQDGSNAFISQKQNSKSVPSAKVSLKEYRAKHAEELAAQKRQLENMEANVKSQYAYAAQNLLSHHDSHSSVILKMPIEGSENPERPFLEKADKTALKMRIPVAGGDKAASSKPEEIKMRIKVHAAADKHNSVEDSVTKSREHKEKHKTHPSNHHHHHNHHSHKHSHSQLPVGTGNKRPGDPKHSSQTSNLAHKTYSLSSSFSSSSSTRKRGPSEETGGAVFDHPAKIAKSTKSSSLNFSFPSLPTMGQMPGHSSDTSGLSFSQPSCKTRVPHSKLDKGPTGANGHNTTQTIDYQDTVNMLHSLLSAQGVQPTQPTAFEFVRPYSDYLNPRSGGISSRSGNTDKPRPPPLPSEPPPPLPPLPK
CDK9/cyclin T1, sequence (P50750 whole entry): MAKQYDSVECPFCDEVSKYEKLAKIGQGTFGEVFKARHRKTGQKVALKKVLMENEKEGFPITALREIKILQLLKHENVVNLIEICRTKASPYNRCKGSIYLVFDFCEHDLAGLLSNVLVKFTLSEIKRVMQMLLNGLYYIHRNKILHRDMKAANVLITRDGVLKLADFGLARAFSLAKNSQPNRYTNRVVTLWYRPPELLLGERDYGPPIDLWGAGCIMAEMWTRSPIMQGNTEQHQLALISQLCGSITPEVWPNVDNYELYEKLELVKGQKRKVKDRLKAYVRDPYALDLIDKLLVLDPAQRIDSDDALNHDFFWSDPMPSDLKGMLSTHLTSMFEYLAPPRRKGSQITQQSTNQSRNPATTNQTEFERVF
Cyclin-dependent kinase 1/cyclin B1, sequence (P06493 whole entry): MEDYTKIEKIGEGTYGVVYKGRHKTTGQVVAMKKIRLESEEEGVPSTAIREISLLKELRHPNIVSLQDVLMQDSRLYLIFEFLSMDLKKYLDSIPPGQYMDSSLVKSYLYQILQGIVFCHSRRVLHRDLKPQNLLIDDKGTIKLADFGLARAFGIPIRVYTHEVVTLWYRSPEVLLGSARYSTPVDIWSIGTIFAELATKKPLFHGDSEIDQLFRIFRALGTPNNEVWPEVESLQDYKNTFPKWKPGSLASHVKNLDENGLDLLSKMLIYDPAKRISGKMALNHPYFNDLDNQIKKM
Cyclin-dependent kinase 1/cyclin B1, sequence (P14635 whole entry, further chain): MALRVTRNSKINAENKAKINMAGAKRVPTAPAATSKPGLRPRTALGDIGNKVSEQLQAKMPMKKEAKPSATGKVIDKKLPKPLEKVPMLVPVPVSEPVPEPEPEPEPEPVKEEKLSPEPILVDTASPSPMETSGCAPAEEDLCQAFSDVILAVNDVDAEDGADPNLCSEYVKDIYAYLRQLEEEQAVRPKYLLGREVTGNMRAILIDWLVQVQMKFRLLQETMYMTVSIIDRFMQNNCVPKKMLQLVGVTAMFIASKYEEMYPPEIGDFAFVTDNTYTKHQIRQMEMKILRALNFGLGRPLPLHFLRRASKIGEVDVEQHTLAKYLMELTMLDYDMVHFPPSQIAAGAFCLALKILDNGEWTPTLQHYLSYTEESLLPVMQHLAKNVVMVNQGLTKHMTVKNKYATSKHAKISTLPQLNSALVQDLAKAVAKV
Cyclin-dependent kinase 7/ cyclin H, sequence (P51946 whole entry): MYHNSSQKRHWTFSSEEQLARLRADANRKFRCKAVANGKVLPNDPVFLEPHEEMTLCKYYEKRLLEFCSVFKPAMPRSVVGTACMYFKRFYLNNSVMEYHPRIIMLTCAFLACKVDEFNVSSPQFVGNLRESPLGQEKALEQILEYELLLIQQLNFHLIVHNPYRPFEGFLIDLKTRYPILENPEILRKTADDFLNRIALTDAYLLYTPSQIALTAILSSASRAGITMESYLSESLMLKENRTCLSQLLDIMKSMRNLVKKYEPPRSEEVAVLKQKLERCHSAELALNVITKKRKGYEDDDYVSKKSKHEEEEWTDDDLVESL
Cyclin-dependent kinase 7/ cyclin H, sequence (P50613 whole entry): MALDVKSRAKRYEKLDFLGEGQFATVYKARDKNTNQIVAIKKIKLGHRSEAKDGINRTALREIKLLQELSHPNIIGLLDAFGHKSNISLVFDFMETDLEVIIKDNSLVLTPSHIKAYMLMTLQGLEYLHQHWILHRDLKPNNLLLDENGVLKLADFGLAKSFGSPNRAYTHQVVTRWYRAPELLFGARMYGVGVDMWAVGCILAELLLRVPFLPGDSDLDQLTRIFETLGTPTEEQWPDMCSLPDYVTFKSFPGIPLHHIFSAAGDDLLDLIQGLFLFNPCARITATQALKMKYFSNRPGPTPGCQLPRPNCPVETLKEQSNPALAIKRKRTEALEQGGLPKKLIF

With CNc1nc(-c2ccccc2)c(-c2ccnc(Nc3cccc([N+](=O)[O-])c3)n2)s1 the Ki [1] was > 5000 nM, the Ki [2] was > 5000 nM and the Ki [3] was > 5000 nM.
For CNc1nc(C)c(-c2nc(Nc3cccc([N+](=O)[O-])c3)ncc2O)s1, the Ki [1] was > 5000 nM, the Ki [2] was 1420 nM and the Ki [4] was > 5000 nM. The Ki [3] was 932 nM.
Compound CNc1nc(C)c(-c2ccnc(Nc3cccc(S(N)(=O)=O)c3)n2)s1 has a Ki [1] of 1960 nM, a Ki [2] of 6 nM and a Ki [4] of 4 nM. The Ki [3] was 2 nM.
CNc1nc(C)c(-c2nc(Nc3cccc(S(N)(=O)=O)c3)ncc2O)s1 was tested, and the Ki [1] was > 5000 nM, the Ki [2] was > 5000 nM and the Ki [4] was > 5000 nM. The Ki [3] was > 5000 nM.
Compound CNc1nc(C)c(-c2nc(Nc3cccc(S(N)(=O)=O)c3)ncc2Cl)s1 has a Ki [1] of 685 nM and a Ki [3] of 11 nM.
CNc1nc(C)c(-c2nc(Nc3cccc(S(N)(=O)=O)c3)ncc2C)s1 was tested, and the Ki [1] was 1180 nM, the Ki [4] was 34 nM and the Ki [3] was 5 nM.
Compound CCc1cnc(Nc2cccc(S(N)(=O)=O)c2)nc1-c1sc(NC)nc1C has a Ki [1] of 1280 nM, a Ki [2] of 788 nM and a Ki [4] of 845 nM. It also gave a Ki [3] of 98 nM.
With CCCc1cnc(Nc2cccc(S(N)(=O)=O)c2)nc1-c1sc(NC)nc1C the Ki [4] was > 5000 nM and the Ki [3] was > 5000 nM.
Compound CNc1nc(C)c(-c2nc(Nc3cccc(N4CCN(C(C)=O)CC4)c3)ncc2C#N)s1 has a Ki [1] of 92 nM, a Ki [2] of 43 nM and a Ki [4] of 43 nM. The Ki [3] was 7 nM.
CNc1nc(C)c(-c2nc(Nc3cccc(N4CCNCC4)c3)ncc2C#N)s1 was tested, and the Ki [1] was 68 nM, the Ki [2] was 42 nM and the Ki [4] was 56 nM. The Ki [3] was 5 nM.
Compound CNc1nc(C)c(-c2nc(Nc3ccc(N4CCN(C(C)=O)CC4)cc3)ncc2C#N)s1 has a Ki [1] of 316 nM, a Ki [2] of 45 nM and a Ki [4] of 26 nM. The Ki [3] was 22 nM.
Work on CNc1nc(C)c(-c2nc(Nc3ccc(N4CCNCC4)cc3)ncc2C#N)s1 yielded a Ki [1] of 71 nM, a Ki [2] of 79 nM and a Ki [4] of 39 nM. The Ki [3] was 6 nM.
Compound CNc1nc(C)c(-c2nc(Nc3cccc(N4CCCCC4)c3)ncc2C#N)s1 has a Ki [1] of 286 nM, a Ki [2] of 35 nM and a Ki [4] of 42 nM. The Ki [3] was 9 nM.
CNc1nc(C)c(-c2nc(Nc3cccc(N4CCN(C(C)=O)CC4)c3)ncc2F)s1 gave a Ki [1] of 302 nM, a Ki [2] of 26 nM and a Ki [4] of 42 nM. It also gave a Ki [3] of 7 nM.
CNc1nc(C)c(-c2nc(Nc3cccc(N4CCNCC4)c3)ncc2F)s1 was tested, and the Ki [1] was 193 nM, the Ki [2] was 24 nM and the Ki [4] was 20 nM. For the same compound, the Ki [3] was 4 nM.
With CNc1nc(C)c(-c2nc(Nc3cccc(N4CCOCC4)c3)ncc2F)s1 the Ki [1] was 473 nM, the Ki [2] was 18 nM and the Ki [4] was 20 nM. For the same compound, the Ki [3] was 3 nM.
CNc1nc(C)c(-c2nc(Nc3cccc(N4CCNCC4)c3)ncc2Cl)s1 showed a Ki [1] of 155 nM, a Ki [2] of 88 nM and a Ki [4] of 45 nM. It also gave a Ki [3] of 4 nM.
Compound CNc1nc(C)c(-c2nc(Nc3cccc(N4CCCNCC4)c3)ncc2F)s1 has a Ki [1] of 111 nM, a Ki [2] of 47 nM and a Ki [4] of 85 nM. It also gave a Ki [3] of 5 nM.
With CNc1nc(C)c(-c2ccnc(Nc3cccc(N4CCCNCC4)c3)n2)s1 the Ki [1] was 433 nM, the Ki [2] was 195 nM and the Ki [4] was 320 nM. The Ki [3] was 19 nM.
In the case of CNc1nc(CC(F)(F)F)c(-c2ccnc(Nc3cccc([N+](=O)[O-])c3)n2)s1, the Ki [1] is reported as > 5000 nM, the Ki [2] is reported as > 5000 nM and the Ki [4] is reported as > 5000 nM. It also gave a Ki [3] of 134 nM.
For CNc1nc(CC(F)(F)F)c(-c2ccnc(Nc3cccc(O)c3)n2)s1, the Ki [1] was 3470 nM, the Ki [2] was 556 nM and the Ki [4] was 282 nM. It also gave a Ki [3] of 245 nM.
CNc1nc(CC(F)(F)F)c(-c2ccnc(Nc3ccc(O)cc3)n2)s1 gave a Ki [1] of 1540 nM, a Ki [2] of 334 nM and a Ki [4] of 347 nM. For the same compound, the Ki [3] was 278 nM.
CNc1nc(CC(F)(F)F)c(-c2ccnc(Nc3cccc(S(N)(=O)=O)c3)n2)s1 showed a Ki [1] of 1980 nM, a Ki [2] of 154 nM and a Ki [4] of 226 nM. It also gave a Ki [3] of 156 nM.
For CNc1nc(C(F)(F)F)c(-c2ccnc(Nc3cccc(S(N)(=O)=O)c3)n2)s1, the Ki [1] was 47 nM, the Ki [2] was 1.5 nM and the Ki [4] was 2 nM. It also gave a Ki [3] of 2 nM.
For CNc1nc(C(F)(F)F)c(-c2ccnc(Nc3ccc(S(N)(=O)=O)cc3)n2)s1, the Ki [1] was 64 nM, the Ki [2] was 0.5 nM and the Ki [4] was 1.5 nM. For the same compound, the Ki [3] was 3 nM.
CNc1ncc(-c2ccnc(Nc3ccc(S(N)(=O)=O)cc3)n2)s1 was tested, and the Ki [1] was 54 nM.
CNc1ncc(-c2ccnc(Nc3cccc(S(N)(=O)=O)c3)n2)s1 showed a Ki [1] of 40 nM, a Ki [2] of 4 nM and a Ki [4] of 5 nM. For the same compound, the Ki [3] was 3 nM.
In the case of CNc1nc(C2CC2)c(-c2ccnc(Nc3cccc(S(N)(=O)=O)c3)n2)s1, the Ki [1] is reported as 273 nM, the Ki [2] is reported as 18 nM and the Ki [4] is reported as 2 nM. It also gave a Ki [3] of 16 nM.
For CNc1nc(C2CC2)c(-c2ccnc(Nc3ccc(S(N)(=O)=O)cc3)n2)s1, the Ki [1] was 255 nM, the Ki [2] was 2 nM and the Ki [4] was 13 nM. It also gave a Ki [3] of 8 nM.
Work on CNc1nc(C2CC2)c(-c2ccnc(Nc3cccc(N4CCCNCC4)c3)n2)s1 yielded a Ki [1] of 464 nM, a Ki [2] of 176 nM and a Ki [4] of 326 nM. For the same compound, the Ki [3] was 66 nM.
CNc1nc(C)c(-c2ccnc(Nc3cccc([N+](=O)[O-])c3)n2)s1 gave a Ki [1] of 417 nM, a Ki [2] of 5 nM and a Ki [4] of 3 nM. For the same compound, the Ki [3] was 2 nM.

Reference: ChEMBL document CHEMBL2346630 (J Med Chem, 2013)
